Measured values from ChEMBL document CHEMBL1121427, “Decomposition of pharmacological activity indices into mutually independent components using principal component analysis” (J Med Chem, 1980).

What was measured:
[1] = -Log C was determined by performing the electroshock minimum test; format: ADME; set-up: unit not given here
[2] = -Log C was determined by performing the foot shock test; format: ADME; set-up: unit not given here
[3] = -Log C was determined by performing the incl screen test; format: ADME; set-up: unit not given here
[4] = -Log C was determined by performing the maximum electroshock test; format: ADME; set-up: unit not given here
[5] = -Log C was determined by performing the pentylenetetrazole test; format: ADME; set-up: unit not given here
Aspergillus niger = test: The compound was evaluated for activity against Aspergillus niger; format: functional
Albifimbria verrucaria = test: The compound was evaluated for activity against Myrothecium verrucaria; format: functional
Trichophyton benhamiae = test: The compound was evaluated for activity against Trichophyton mentagrophytes; format: functional, Arthroderma benhamiae

Row | Structure (SMILES) | -Log C [1] | -Log C [2] | -Log C [3] | -Log C [4] | -Log C [5] | -Log C (Aspergillus niger) | -Log C (Albifimbria verrucaria) | -Log C (Trichophyton benhamiae)
1 | CN(C)c1ccc2c(c1)C(c1ccccc1)=NCC(=O)N2C | 0.06 | 0.87 | 0.29 | 0.5 | 1.7 | – | – | –
2 | CC(C)(C)N1C(=O)CN=C(c2ccccc2)c2cc(Cl)ccc21 | 0.39 | 0.51 | 0.19 | 0.26 | 0.39 | – | – | –
3 | Oc1c(F)ccc2cccnc12 | – | – | – | – | – | 1.32 mM l-1 | 1.75 mM l-1 | 1.92 mM l-1
4 | CN1C(=O)CN=C(c2ccccc2)c2cc(C#N)ccc21 | 0.14 | 1.74 | 1.14 | 1.29 | 2.36 | – | – | –
5 | Cc1ccccc1C1=NCC(=O)Nc2ccc(Cl)cc21 | 0.19 | 0.45 | 0.28 | 1.13 | 1.57 | – | – | –
6 | CCN1C(=O)CN=C(c2ccccc2)c2cc(Cl)ccc21 | 0.3 | 1.17 | 0.6 | 1.56 | 1.87 | – | – | –
7 | Cc1ccc2c(c1)C(c1ccccc1)=NCC(=O)N2 | 0.51 | 0.4 | 0.4 | 1.75 | 1.55 | – | – | –
8 | N#Cc1ccc2c(c1)C(c1ccccc1)=NCC(=O)N2 | 0.41 | 0.82 | 0.54 | 0.89 | 2.3 | – | – | –
9 | CN(C)c1ccc2c(c1)C(c1ccccc1)=NCC(=O)N2 | 0.38 | 0.45 | 0.25 | 0.12 | 0.82 | – | – | –
10 | O=C1CN=C(c2ccccc2)c2cc(C(F)(F)F)ccc2N1 [RO-052904] | 1.16 | 1.48 | 1.48 | 1.78 | 2.48 | – | – | –
